Inconclusive results are not listed. The calls were made as follows: active = survival T/C of 150% or more; inactive = T/C below 125% in these data.
Test system: BDF1 mice, B16 melanoma s.c., survival/tumor T/C
Experiment: NCI In Vivo Anticancer Drug Screen. Data for tumor model B16 Melanoma (subcutaneous) in B6D2F1 (BDF1) mice
Conditions: endpoint: median survival time, higher = longer survival
Method: The antitumor activity of compounds was measured in mice bearing transplantable tumors. Survival or tumor size were measured and the results are expressed as the measurement made in the treated group (T) divided by the measurement made in the vehicle treated control group (C). The tumor model used in this assay is B16 Melanoma (subcutaneous) in B6D2F1 (BDF1) mice

Measured: T/C

CO[C@H](C(=O)[C@@H](O)[C@@H](C)O)[C@@H]1Cc2cc3cc(OC4CC(OC5CC(O)C(O)C(C)O5)C(O)C(C)O4)c(C)c(O)c3c(O)c2C(=O)[C@H]1OC1CC(OC2CC(OC3CC(C)(O)C(O)C(C)O3)C(O)C(C)O2)C(O)C(C)O1 (some centres undefined)
inactive: dose: 0.12 mg/kg/injection, schedule: Q01DX009 (ip), vehicle: saline 100 % of control | dose: 0.25 mg/kg/injection, schedule: Q01DX009 (ip), vehicle: saline 114 % of control | dose: 0.5 mg/kg/injection, schedule: Q01DX009 (ip), vehicle: saline 116 % of control | dose: 1.0 mg/kg/injection, schedule: Q01DX009 (ip), vehicle: saline 118 % of control | dose: 3.8 micrograms/kg/injection, schedule: Q01DX009 (ip), vehicle: water 104 % of control | dose: 7.5 micrograms/kg/injection, schedule: Q01DX009 (ip), vehicle: water 107 % of control | dose: 15.0 micrograms/kg/injection, schedule: Q01DX009 (ip), vehicle: water 101 % of control | dose: 30.0 micrograms/kg/injection, schedule: Q01DX009 (ip), vehicle: water 114 % of control | dose: 60.0 micrograms/kg/injection, schedule: Q01DX009 (ip), vehicle: water 93 % of control | dose: 120.0 micrograms/kg/injection, schedule: Q01DX009 (ip), vehicle: water 91 % of control | dose: 250.0 micrograms/kg/injection, schedule: Q01DX009 (ip), vehicle: water 86 % of control

CO[C@H]1C[C@](C)(O)Cc2cc3c(c(O)c21)C(=O)c1c(O)cc2c(c1C3=O)O[C@@H]1O[C@@]2(C)[C@H](O)[C@@H](N(C)C)[C@@H]1O
inactive: dose: 6.25 mg/kg/injection, schedule: Q01DX009 (ip), vehicle: other 104 % of control | dose: 12.5 mg/kg/injection, schedule: Q01DX009 (ip), vehicle: other 95 % of control

CC1(C)N=C(N)N=C(N)N1c1ccc(CCCCc2ccc(S(=O)(=O)F)cc2Cl)c(Cl)c1
inactive: dose: 6.25 mg/kg/injection, schedule: Q01DX009 (ip), vehicle: saline 119 % of control | dose: 12.5 mg/kg/injection, schedule: Q01DX009 (ip), vehicle: saline 90 % of control | dose: 18.75 mg/kg/injection, schedule: Q04DX003 (ip), vehicle: saline 88 % of control | dose: 25.0 mg/kg/injection, schedule: Q01DX009 (ip), vehicle: saline 111 % of control | dose: 37.5 mg/kg/injection, schedule: Q04DX003 (ip), vehicle: saline 105 % of control | dose: 75.0 mg/kg/injection, schedule: Q04DX003 (ip), vehicle: saline 110 % of control | dose: 150.0 mg/kg/injection, schedule: Q04DX003 (ip), vehicle: saline 119 % of control

OCCN1CCN(CC/C=C2/c3ccccc3Sc3ccc(C(F)(F)F)cc32)CC1
inactive: dose: 1.8 micrograms/kg/injection, schedule: Q01DX009 (ip), vehicle: saline 93 % of control | dose: 3.7 micrograms/kg/injection, schedule: Q01DX009 (ip), vehicle: saline 95 % of control | dose: 7.5 micrograms/kg/injection, schedule: Q01DX009 (ip), vehicle: saline 109 % of control | dose: 15.0 micrograms/kg/injection, schedule: Q01DX009 (ip), vehicle: saline 103 % of control | dose: 30.0 micrograms/kg/injection, schedule: Q01DX009 (ip), vehicle: saline 91 % of control

O=[N+]([O-])O.[Ga]
inactive: dose: 4.0 mg/kg/injection, schedule: Q01DX009 (ip), vehicle: saline 109 % of control | dose: 16.0 mg/kg/injection, schedule: Q01DX009 (ip), vehicle: saline 91 % of control | dose: 32.0 mg/kg/injection, schedule: Q01DX009 (ip), vehicle: saline 86 % of control | dose: 40.0 mg/kg/injection, schedule: Q01DX009 (ip), vehicle: saline 99 % of control | dose: 64.0 mg/kg/injection, schedule: Q01DX009 (ip), vehicle: saline 95 % of control | dose: 90.0 mg/kg/injection, schedule: Q01DX009 (ip), vehicle: saline 104 % of control | dose: 200.0 mg/kg/injection, schedule: Q04DX003 (ip), vehicle: saline 99 % of control | dose: 400.0 mg/kg/injection, schedule: Q01DX001 (ip), vehicle: saline 100 % of control | dose: 600.0 mg/kg/injection, schedule: Q01DX001 (ip), vehicle: saline 100 % of control

From PubChem BioAssay AID194 (DTP/NCI, 2004)
